Reference: patent publication US10906873B2, “Substituted cyclic amides as herbicides” (FMC Corporation, priority 2015, dated 2021)

system: kochia (Kochia scoparia); experiment: Test A preemergence, kochia; type: in vivo; conditions: 125 g ai/ha, 0 to 100 scale
Summary of the method: (§1)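 Visual injury ratings, 0 = no effect to 100 = complete control, made versus untreated controls after about 10 d in greenhouse. Chemicals formulated in solvent mixture containing surfactant were sprayed on loam-sand soil after seeding (preemergence) or onto plants at one- to two-leaf stage, 2-10 cm (postemergence).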

Structure (SMILES)	Plant response rating, Kochia
Cc1cccc(C#CC2CNC(=O)C2C(=O)Nc2ccccc2F)c1 (stereo not drawn) [Compound 21]	0

same assay, conditions: 500 g ai/ha, 0 to 100 scale

Structure (SMILES)	Plant response rating, Kochia
Cc1cccc(C#CC2CNC(=O)C2C(=O)Nc2ccccc2F)c1 (stereo not drawn) [Compound 21]	0

system: barnyardgrass (Echinochloa crus-galli); experiment: Test B flooded paddy test, barnyardgrass; type: in vivo; conditions: Flood, 250 g ai/ha; scale of 0 to 100 where 0 is no effect and 100 is complete control; 13 to 15 d
Summary of the method: (§2)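 Ratings use a 0-100 visual scale, where 100 is complete control, and compare treated plants with controls after 13 to 15 d of greenhouse growth. Compound went straight into paddy water kept 3 cm over the soil surface, applied to seedlings at the 2-leaf stage.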

Structure (SMILES)	Plant response rating, Barnyardgrass
Cc1cccc(C#CC2CNC(=O)C2C(=O)Nc2ccccc2F)c1 (stereo not drawn) [Compound 21]	0

system: ragweed (common ragweed, Ambrosia elatior); experiment: Test A preemergence, ragweed; type: in vivo; conditions: 125 g ai/ha, 0 to 100 scale
Summary of the method: as §1

Structure (SMILES)	Plant response rating, Ragweed
Cc1cccc(C#CC2CNC(=O)C2C(=O)Nc2ccccc2F)c1 (stereo not drawn) [Compound 21]	0

same assay, conditions: 500 g ai/ha, 0 to 100 scale

Structure (SMILES)	Plant response rating, Ragweed
Cc1cccc(C#CC2CNC(=O)C2C(=O)Nc2ccccc2F)c1 (stereo not drawn) [Compound 21]	0

system: ryegrass, It. (Italian ryegrass, Lolium multiflorum); experiment: Test A preemergence, ryegrass, It.; type: in vivo; conditions: 125 g ai/ha, 0 to 100 scale
Summary of the method: as §1

Structure (SMILES)	Plant response rating, Ryegrass, It.
Cc1cccc(C#CC2CNC(=O)C2C(=O)Nc2ccccc2F)c1 (stereo not drawn) [Compound 21]	0

same assay, conditions: 500 g ai/ha, 0 to 100 scale

Structure (SMILES)	Plant response rating, Ryegrass, It.
Cc1cccc(C#CC2CNC(=O)C2C(=O)Nc2ccccc2F)c1 (stereo not drawn) [Compound 21]	20

system: ragweed (common ragweed, Ambrosia elatior); experiment: Test A postemergence, ragweed; type: in vivo; conditions: 125 g ai/ha, 0 to 100 scale
Summary of the method: as §1

Structure (SMILES)	Plant response rating, Ragweed
Cc1cccc(C#CC2CNC(=O)C2C(=O)Nc2ccccc2F)c1 (stereo not drawn) [Compound 21]	0

same assay, conditions: 500 g ai/ha, 0 to 100 scale

Structure (SMILES)	Plant response rating, Ragweed
Cc1cccc(C#CC2CNC(=O)C2C(=O)Nc2ccccc2F)c1 (stereo not drawn) [Compound 21]	0

system: ryegrass, It. (Italian ryegrass, Lolium multiflorum); experiment: Test A postemergence, ryegrass, It.; type: in vivo; conditions: 125 g ai/ha, 0 to 100 scale
Summary of the method: as §1

Structure (SMILES)	Plant response rating, Ryegrass, It.
Cc1cccc(C#CC2CNC(=O)C2C(=O)Nc2ccccc2F)c1 (stereo not drawn) [Compound 21]	0

same assay, conditions: 500 g ai/ha, 0 to 100 scale

Structure (SMILES)	Plant response rating, Ryegrass, It.
Cc1cccc(C#CC2CNC(=O)C2C(=O)Nc2ccccc2F)c1 (stereo not drawn) [Compound 21]	0

system: blackgrass (Alopecurus myosuroides); experiment: Test A postemergence, blackgrass; type: in vivo; conditions: 125 g ai/ha, 0 to 100 scale
Summary of the method: as §1

Structure (SMILES)	Plant response rating, Blackgrass
Cc1cccc(C#CC2CNC(=O)C2C(=O)Nc2ccccc2F)c1 (stereo not drawn) [Compound 21]	0

same assay, conditions: 500 g ai/ha, 0 to 100 scale

Structure (SMILES)	Plant response rating, Blackgrass
Cc1cccc(C#CC2CNC(=O)C2C(=O)Nc2ccccc2F)c1 (stereo not drawn) [Compound 21]	0

system: foxtail, giant (giant foxtail, Setaria faberii); experiment: Test A preemergence, foxtail, giant; type: in vivo; conditions: 125 g ai/ha, 0 to 100 scale
Summary of the method: as §1

Structure (SMILES)	Plant response rating, Foxtail, Giant
Cc1cccc(C#CC2CNC(=O)C2C(=O)Nc2ccccc2F)c1 (stereo not drawn) [Compound 21]	0

same assay, conditions: 500 g ai/ha, 0 to 100 scale

Structure (SMILES)	Plant response rating, Foxtail, Giant
Cc1cccc(C#CC2CNC(=O)C2C(=O)Nc2ccccc2F)c1 (stereo not drawn) [Compound 21]	0

system: kochia (Kochia scoparia); experiment: Test A postemergence, kochia; type: in vivo; conditions: 125 g ai/ha, 0 to 100 scale
Summary of the method: as §1

Structure (SMILES)	Plant response rating, Kochia
Cc1cccc(C#CC2CNC(=O)C2C(=O)Nc2ccccc2F)c1 (stereo not drawn) [Compound 21]	0

same assay, conditions: 500 g ai/ha, 0 to 100 scale

Structure (SMILES)	Plant response rating, Kochia
Cc1cccc(C#CC2CNC(=O)C2C(=O)Nc2ccccc2F)c1 (stereo not drawn) [Compound 21]	0

system: ducksalad (Heteranthera limosa); experiment: Test B flooded paddy test, ducksalad; type: in vivo; conditions: Flood, 250 g ai/ha; scale of 0 to 100 where 0 is no effect and 100 is complete control; 13 to 15 d
Summary of the method: as §2

Structure (SMILES)	Plant response rating, Ducksalad
Cc1cccc(C#CC2CNC(=O)C2C(=O)Nc2ccccc2F)c1 (stereo not drawn) [Compound 21]	40

system: sedge, umbrella (small-flower umbrella sedge, Cyperus difformis); experiment: Test B flooded paddy test, sedge, umbrella; type: in vivo; conditions: Flood, 250 g ai/ha; scale of 0 to 100 where 0 is no effect and 100 is complete control; 13 to 15 d
Summary of the method: as §2

Structure (SMILES)	Plant response rating, Sedge, Umbrella
Cc1cccc(C#CC2CNC(=O)C2C(=O)Nc2ccccc2F)c1 (stereo not drawn) [Compound 21]	0

system: corn (Zea mays); experiment: Test A postemergence, corn; type: in vivo; conditions: 125 g ai/ha, 0 to 100 scale
Summary of the method: as §1

Structure (SMILES)	Plant response rating, Corn
Cc1cccc(C#CC2CNC(=O)C2C(=O)Nc2ccccc2F)c1 (stereo not drawn) [Compound 21]	0

same assay, conditions: 500 g ai/ha, 0 to 100 scale

Structure (SMILES)	Plant response rating, Corn
Cc1cccc(C#CC2CNC(=O)C2C(=O)Nc2ccccc2F)c1 (stereo not drawn) [Compound 21]	0

system: pigweed (Amaranthus retroflexus); experiment: Test A postemergence, pigweed; type: in vivo; conditions: 125 g ai/ha, 0 to 100 scale
Summary of the method: as §1

Structure (SMILES)	Plant response rating, Pigweed
Cc1cccc(C#CC2CNC(=O)C2C(=O)Nc2ccccc2F)c1 (stereo not drawn) [Compound 21]	0

same assay, conditions: 500 g ai/ha, 0 to 100 scale

Structure (SMILES)	Plant response rating, Pigweed
Cc1cccc(C#CC2CNC(=O)C2C(=O)Nc2ccccc2F)c1 (stereo not drawn) [Compound 21]	0

system: rice (Oryza sativa); experiment: Test B flooded paddy test, rice; type: in vivo; conditions: Flood, 250 g ai/ha; scale of 0 to 100 where 0 is no effect and 100 is complete control; 13 to 15 d
Summary of the method: as §2

Structure (SMILES)	Plant response rating, Rice
Cc1cccc(C#CC2CNC(=O)C2C(=O)Nc2ccccc2F)c1 (stereo not drawn) [Compound 21]	0

system: galium (catchweed bedstraw, Galium aparine); experiment: Test A postemergence, galium; type: in vivo; conditions: 125 g ai/ha, 0 to 100 scale
Summary of the method: as §1

Structure (SMILES)	Plant response rating, Galium
Cc1cccc(C#CC2CNC(=O)C2C(=O)Nc2ccccc2F)c1 (stereo not drawn) [Compound 21]	0

same assay, conditions: 500 g ai/ha, 0 to 100 scale

Structure (SMILES)	Plant response rating, Galium
Cc1cccc(C#CC2CNC(=O)C2C(=O)Nc2ccccc2F)c1 (stereo not drawn) [Compound 21]	0

system: barnyardgrass (Echinochloa crus-galli); experiment: Test A postemergence, barnyardgrass; type: in vivo; conditions: 125 g ai/ha, 0 to 100 scale
Summary of the method: as §1

Structure (SMILES)	Plant response rating, Barnyardgrass
Cc1cccc(C#CC2CNC(=O)C2C(=O)Nc2ccccc2F)c1 (stereo not drawn) [Compound 21]	0

same assay, conditions: 500 g ai/ha, 0 to 100 scale

Structure (SMILES)	Plant response rating, Barnyardgrass
Cc1cccc(C#CC2CNC(=O)C2C(=O)Nc2ccccc2F)c1 (stereo not drawn) [Compound 21]	50

system: foxtail, giant (giant foxtail, Setaria faberii); experiment: Test A postemergence, foxtail, giant; type: in vivo; conditions: 125 g ai/ha, 0 to 100 scale
Summary of the method: as §1

Structure (SMILES)	Plant response rating, Foxtail, Giant
Cc1cccc(C#CC2CNC(=O)C2C(=O)Nc2ccccc2F)c1 (stereo not drawn) [Compound 21]	0

same assay, conditions: 500 g ai/ha, 0 to 100 scale

Structure (SMILES)	Plant response rating, Foxtail, Giant
Cc1cccc(C#CC2CNC(=O)C2C(=O)Nc2ccccc2F)c1 (stereo not drawn) [Compound 21]	20

system: pigweed (Amaranthus retroflexus); experiment: Test A preemergence, pigweed; type: in vivo; conditions: 125 g ai/ha, 0 to 100 scale
Summary of the method: as §1

Structure (SMILES)	Plant response rating, Pigweed
Cc1cccc(C#CC2CNC(=O)C2C(=O)Nc2ccccc2F)c1 (stereo not drawn) [Compound 21]	0

same assay, conditions: 500 g ai/ha, 0 to 100 scale

Structure (SMILES)	Plant response rating, Pigweed
Cc1cccc(C#CC2CNC(=O)C2C(=O)Nc2ccccc2F)c1 (stereo not drawn) [Compound 21]	0

system: wheat (Triticum aestivum); experiment: Test A postemergence, wheat; type: in vivo; conditions: 125 g ai/ha, 0 to 100 scale
Summary of the method: as §1

Structure (SMILES)	Plant response rating, Wheat
Cc1cccc(C#CC2CNC(=O)C2C(=O)Nc2ccccc2F)c1 (stereo not drawn) [Compound 21]	0

same assay, conditions: 500 g ai/ha, 0 to 100 scale

Structure (SMILES)	Plant response rating, Wheat
Cc1cccc(C#CC2CNC(=O)C2C(=O)Nc2ccccc2F)c1 (stereo not drawn) [Compound 21]	0

system: barnyardgrass (Echinochloa crus-galli); experiment: Test A preemergence, barnyardgrass; type: in vivo; conditions: 125 g ai/ha, 0 to 100 scale
Summary of the method: as §1

Structure (SMILES)	Plant response rating, Barnyardgrass
Cc1cccc(C#CC2CNC(=O)C2C(=O)Nc2ccccc2F)c1 (stereo not drawn) [Compound 21]	20

same assay, conditions: 500 g ai/ha, 0 to 100 scale

Structure (SMILES)	Plant response rating, Barnyardgrass
Cc1cccc(C#CC2CNC(=O)C2C(=O)Nc2ccccc2F)c1 (stereo not drawn) [Compound 21]	80
